What was measured:
[1] = Miscibility and mixing stability in cosmetic formulations; assay type: physicochemical
chapping in cheeks = assay: Test 1: skin chapping score by naked-eye observation after 2-week application on cheeks; assay type: in vivo, human; conditions: 33% diamide derivative and 67% vaseline, 2 weeks, mean score, 0 no chapping to 4 serious chapping
Description: (§1) Dermatologic preparations (invention products) composed of 33% of each of the diamide derivatives prepared in Preparation Examples 1 to 18 and 67% of vaseline were prepared. Their effects on skin conductance and chapping were evaluated in the below-described manner. For comparison, a dermatologic preparation (Comparative Product 1) composed of vaseline alone was evaluated in the same manner.
(§2) Ten female subjects aged 20 to 50 years, who suffered chapping in cheeks in winter, were employed. Different dermatologic preparations were applied on the right and left cheeks of the subjects for 2 weeks, respectively. On the next day after completion of the application for 2 weeks, the following items were examined.
Each score is expressed in the mean value.
0: No chapping is observed.
1: Slight chapping is observed.
3: Somewhat serious chapping is observed.
4: Serious chapping is observed.

horny layer = assay: Test 1: skin conductance (water content of the horny layer) after 2-week application on cheeks; assay type: in vivo, human; parameters: unit not given here; conditions: preparation of 33% diamide derivative and 67% vaseline; applied on cheeks 2 weeks; ten female subjects with chapping; skin conductance meter, 20° C., humidity 45%
Description: as §1, §2
The face of each subject was washed with warm water of 37° C. After they were allowed to stand in a room at 20° C. under a humidity of 45% for 20 minutes, the water content of the horny layer was measured using a skin conductance meter (product of IBS Co., Ltd.).

[2] = system: dorsal skin of rats with essential fatty acid deficiency; assay: Test 2: percutaneous absorption of 14C-salicylic acid through excised dorsal skin of treated rats; assay type: in vivo, Wistar male rats; conditions: 10% diamide derivative and 90% squalane; once a day for 2 weeks; radioactivity of 14C-salicylic acid penetrated in 2 hours through excised skin; mean
Description: (§3) Dermatologic preparations (invention products) of the present invention composed of 10% of each of the diamide derivatives prepared in Preparation Examples 1 to 18 and 90% of squalane were prepared and their transepidermal water loss and percutaneous absorption were evaluated by the below-described test method. For comparison, a dermatologic preparation (Comparative Product 2) composed of squalane alone was also evaluated by the test.
(§4) Wistar male rats were fed with a feed free from essential fatty acids and the resulting rats with essential fatty acid deficiency were employed in this test. The dorsal part of the rat showing essential fatty acid deficiency was carefully shaven and each dermatologic preparation to be evaluated was applied thereto once a day for 2 weeks. A group consisting of 5 rats was provided for the test of each dermatologic preparation. After 2 weeks, the following items were examined.
After the dorsal skin of the rat was washed with warm water of 37° C., it was cut and fixed in a percutaneous absorption chamber with the epidermal side thereof directed upward. A lower receiver of the chamber was filled with a phosphate buffer solution while a container on the epidermal side thereof was charged with 1 ml of a phosphate buffer solution containing 37 KBq of ^14C-salicylic acid. Two hours after they were allowed to stand, 1 mL of the phosphate buffer solution was taken out of the lower receiver and the radioactivity of the ^14C-salicylic acid which had penetrated into it was measured. Each value is expressed in mean value.

[3] = system: dorsal skin of rats with essential fatty acid deficiency; assay: Test 2: transepidermal water loss in rats with essential fatty acid deficiency; assay type: in vivo, Wistar male rats; parameters: unit not given here; conditions: 10% diamide derivative and 90% squalane; applied to shaven dorsal part once a day for 2 weeks; evaporimeter; mean of 5 rats
Description: as §3, §4
The dorsal part of the test rat was washed with warm water and the animal was the allowed to stand in a room (at 23° C. under a humidity of 45%) for 1 hour. The transepidermal water loss was then measured with an evaporimeter. Each measured value is expressed in mean value.

[4] = in hair liquid composition of Table 10, 1%

miscibility and mixing stability ([1]; in shampoo of Table 9, 2%) | miscibility and mixing stability ([1]; in skin lotion of Table 7, 1%) | miscibility and mixing stability ([1]; in O/W cream of Table 8, 3.5%) | miscibility and mixing stability [1, 4] | SMILES | Skin chapping score (chapping in cheeks) | Skin conductance (horny layer) | Percutaneous absorption [2] | Transepidermal water loss [3]
excellent | excellent |  |  | CC(CCCCCCC(=O)NCCOCCO)CCCCC(C)CCCCCCC(=O)NCCOCCO (stereo not drawn) [Compound (A)] | 0.6 | 28 | 572 | 12
 |  |  |  | C/C(=C\CC/C=C(\C)CCCCCCC(=O)NCCOCCO)CCCCCCC(=O)NCCOCCO [Compound (B)] | 0.9 | 25 | 558 | 12
 |  |  |  | O=C(CCCCCCCCCCCCCCCCCCC(=O)NCCOCCO)NCCOCCO [Compound (C)] | 1.0 | 21 | 1685 | 21
 |  | excellent | excellent | O=C(CCCCCCCCC(=O)NCCOCCO)NCCOCCO [Compound (D)] | 0.5 | 30 | 997 | 15
 |  |  |  | O=C(CCC(=O)NCCOCCO)NCCOCCO [Compound (E)] | 1.0 | 18 | 1772 | 25
excellent | excellent | excellent | excellent | COCCCNC(=O)CCCCCCC(C)CCCCC(C)CCCCCCC(=O)NCCCOC (stereo not drawn) [Compound (F)] | 1.2 | 20 | 1487 | 20
 |  |  |  | CCCCCCCCCCCCOCCCNC(=O)CCCCCCC(C)CCCCC(C)CCCCCCC(=O)NCCCOCCCCCCCCCCCC (stereo not drawn) [Compound (G)] | 1.1 | 17 | 1096 | 16
 |  |  |  | COCCOCCNC(=O)CCCCCCC(C)CCCCC(C)CCCCCCC(=O)NCCOCCOC (stereo not drawn) [Compound (H)] | 1.3 | 19 | 2036 | 23
 |  |  |  | O=C(CCCCCCCCCCCCCC(=O)NCCOCCO)NCCOCCO [Compound (I)] |  |  | 1197 | 18
 |  |  |  | O=C(CCCCCCCCCCCC(=O)NCCOCCO)NCCOCCO [Compound (J)] | 0.8 | 23 | 1490 | 21
 |  |  |  | O=C(CCCCCCCCCCC(=O)NCCOCCO)NCCOCCO [Compound (K)] |  |  | 1694 | 22
 |  |  |  | COCCCNC(=O)CCCCCCCCCCCCCCCCCCC(=O)NCCCOC [Compound (L)] | 1.3 | 19 | 705 | 15
 |  |  |  | COCCCNC(=O)CCCCCCCCCCC(=O)NCCCOC [Compound (M)] |  |  | 2038 | 25
 |  |  |  | COCCCNC(=O)CCCCCCCCC(=O)NCCCOC [Compound (N)] | 1.5 | 18 | 1560 | 23
 |  |  |  | CCCCCCCCCCCCOCCCNC(=O)CCCCCCCCC(=O)NCCCOCCCCCCCCCCCC [Compound (O)] |  |  | 2476 | 27
